Here are results for 23 molecules from ChEMBL document CHEMBL6092125, “Synthesis and biological evaluation of novel aminoquinolines with an n-octyl linker: Impact of halogen substituents on C(7) or a terminal amino group on anticholinesterase and BACE1 activity” (Bioorg Med Chem Lett, 2024).

Assay [1] deals with T1, Cholinesterase (Homo sapiens, UniProt P06276). In words: Inhibition of recombinant human BChE by DTNB reagent based Ellman's method.
The target in assay [2] is T2, Acetylcholinesterase (Homo sapiens, UniProt P22303). As to the kind of experiment: Inhibition of recombinant human AChE by DTNB reagent based Ellman's method.
T2 sequence (P22303 whole entry): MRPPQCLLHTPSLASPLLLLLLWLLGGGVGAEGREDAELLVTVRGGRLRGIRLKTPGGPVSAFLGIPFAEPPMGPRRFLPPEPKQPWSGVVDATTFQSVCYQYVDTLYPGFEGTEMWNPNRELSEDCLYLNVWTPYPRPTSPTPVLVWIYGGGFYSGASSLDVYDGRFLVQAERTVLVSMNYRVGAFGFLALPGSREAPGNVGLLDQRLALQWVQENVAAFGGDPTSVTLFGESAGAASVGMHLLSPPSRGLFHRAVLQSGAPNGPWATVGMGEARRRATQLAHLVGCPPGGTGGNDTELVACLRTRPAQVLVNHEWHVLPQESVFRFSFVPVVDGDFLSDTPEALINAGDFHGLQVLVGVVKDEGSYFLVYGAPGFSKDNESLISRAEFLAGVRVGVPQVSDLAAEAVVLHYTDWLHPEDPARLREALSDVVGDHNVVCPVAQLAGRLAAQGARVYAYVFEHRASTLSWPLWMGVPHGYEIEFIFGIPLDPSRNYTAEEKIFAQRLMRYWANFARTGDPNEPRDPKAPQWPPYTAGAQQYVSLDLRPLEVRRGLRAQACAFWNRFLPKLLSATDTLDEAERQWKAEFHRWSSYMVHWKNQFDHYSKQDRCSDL
The target in assay [3] is T2, Acetylcholinesterase. As to the kind of experiment: Non-competitive inhibition of recombinant human AChE by DTNB reagent based Ellman's method.
In assay [4] the target is T1, Cholinesterase. In words: Competitive inhibition of recombinant human BChE by DTNB reagent based Ellman's method.
The test system of a further assay is SH-SY5Y. In words: Cytotoxicity against human SH-SY5Y cells incubated for 24 hrs by MTS assay. Format: functional, cell-based.
Another assay has as its system HEK293. As to the kind of experiment: Cytotoxicity against HEK293 cells incubated for 24 hrs by MTS assay. Format: functional, cell-based. The following applies: Homo sapiens.
In assay [5] the target is T2, Acetylcholinesterase. As to the kind of experiment: Mixed type inhibition of recombinant human AChE by DTNB reagent based Ellman's method.
Assay [6] has as its target Beta-secretase 1 (Homo sapiens) (UniProt P56817). As to the kind of experiment: Inhibition of BACE1 (unknown origin) at 1 uM relative to control.
The target of assay [7] is T1, Cholinesterase. As to the kind of experiment: Mixed type inhibition of recombinant human BChE by DTNB reagent based Ellman's method.
Assay [8] deals with T2, Acetylcholinesterase. As to the kind of experiment: Competitive inhibition of recombinant human AChE by DTNB reagent based Ellman's method.
A further assay relates to HepG2. In words: Cytotoxicity against human HepG2 cells incubated for 24 hrs by MTS assay. Format: functional, cell-based.

The structures appear in SMILES notation. pKi: −log10 of the molar value. Activity calls are given as the source filed them. No cut-off for these calls is given here. Bounds are passed on as bounds.

T1 sequence (P06276 whole entry): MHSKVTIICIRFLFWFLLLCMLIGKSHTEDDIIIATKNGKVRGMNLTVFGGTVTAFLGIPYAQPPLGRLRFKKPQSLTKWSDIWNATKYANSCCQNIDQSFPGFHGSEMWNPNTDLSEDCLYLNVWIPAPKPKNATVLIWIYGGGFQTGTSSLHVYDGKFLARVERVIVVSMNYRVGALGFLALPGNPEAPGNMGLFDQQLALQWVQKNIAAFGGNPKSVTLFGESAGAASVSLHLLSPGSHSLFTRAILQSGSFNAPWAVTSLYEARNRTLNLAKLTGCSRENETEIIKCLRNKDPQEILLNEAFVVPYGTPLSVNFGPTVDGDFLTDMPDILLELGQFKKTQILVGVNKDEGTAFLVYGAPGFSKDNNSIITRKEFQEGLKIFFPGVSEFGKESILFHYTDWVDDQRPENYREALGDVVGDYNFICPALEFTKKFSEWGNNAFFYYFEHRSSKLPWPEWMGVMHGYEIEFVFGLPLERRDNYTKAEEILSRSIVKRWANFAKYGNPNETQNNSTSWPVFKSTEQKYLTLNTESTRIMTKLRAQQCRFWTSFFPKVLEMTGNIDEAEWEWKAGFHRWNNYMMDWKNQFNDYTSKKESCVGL
Chain of Beta-secretase 1 (Homo sapiens) (P56817 whole entry): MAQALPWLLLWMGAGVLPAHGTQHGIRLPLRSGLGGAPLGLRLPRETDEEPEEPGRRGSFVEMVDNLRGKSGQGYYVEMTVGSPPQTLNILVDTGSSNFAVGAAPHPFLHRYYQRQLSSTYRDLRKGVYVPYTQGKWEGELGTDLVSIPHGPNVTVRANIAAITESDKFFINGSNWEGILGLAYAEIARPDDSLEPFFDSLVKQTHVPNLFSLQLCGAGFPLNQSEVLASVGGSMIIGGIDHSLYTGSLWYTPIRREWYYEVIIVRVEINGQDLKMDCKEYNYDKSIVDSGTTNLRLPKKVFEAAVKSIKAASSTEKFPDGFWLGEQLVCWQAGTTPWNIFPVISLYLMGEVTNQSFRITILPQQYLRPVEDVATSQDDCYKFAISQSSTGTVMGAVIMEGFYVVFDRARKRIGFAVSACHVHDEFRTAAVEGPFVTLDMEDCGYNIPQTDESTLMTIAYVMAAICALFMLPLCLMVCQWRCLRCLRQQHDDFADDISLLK

Take `Fc1ccc(F)c(CN(CCCCCCCCNc2ccnc3cc(Cl)ccc23)c2cc(F)ccc2F)c1`: the pKi at Cholinesterase [1] is 5.89; at Acetylcholinesterase [2] it was 6.59.
For the molecule `CC(C)(C)c1ccc(NCCCCCCCCNc2ccnc3cc(C(F)(F)F)ccc23)cc1`, the pKi was 6.80 on Acetylcholinesterase [3] and 7.15 on Cholinesterase [4].
For `Fc1ccc(CNCCCCCCCCNc2ccnc3cc(Cl)ccc23)c(F)c1`, the results for the pKi at Cholinesterase [1] and on Acetylcholinesterase [2] were 6.57 and 7.68, respectively. Besides, the result in the assay on SH-SY5Y was Active.
Turning to `Fc1ccc(Br)cc1CNCCCCCCCCNc1ccnc2cc(Cl)ccc12`, the negative-log Ki (pKi) at Cholinesterase [1] is 6.66; on Acetylcholinesterase [2] it was 7.62.
`FC(F)(F)c1ccc2c(NCCCCCCCCNc3cc4ccccc4s3)ccnc2c1`: the result with HEK293 and in the assay on SH-SY5Y was Active. In addition, the negative-log Ki (pKi) is 7.15 on Acetylcholinesterase [5] and 8.36 at Cholinesterase [4]. For the same molecule, the inhibition in [6] was above 5.6%.
Consider `Cc1cc(F)c(CNCCCCCCCCNc2ccnc3cc(Cl)ccc23)cc1F`, for which the result with HEK293 was Active. Further, the pKi at Cholinesterase [1] was 6.21; on Acetylcholinesterase [2], 6.92.
On to `Fc1ccc(Br)c(CNCCCCCCCCNc2ccnc3cc(Cl)ccc23)c1`, for which the negative logarithm of the Ki (pKi) was 6.55 on Cholinesterase [1] and 7.80 on Acetylcholinesterase [2].
Take `O=[N+]([O-])c1ccc(NCCCCCCCCNc2ccnc3cc(C(F)(F)F)ccc23)cc1`: the figures for the negative-log Ki (pKi) on Cholinesterase [7] and on Acetylcholinesterase [3] were 7.44 and 6.85, respectively. Besides, the inhibition in assay [6] is above 5.6%.
As for `FC(F)(F)c1ccc2c(NCCCCCCCCNc3ccccc3Cl)ccnc2c1`, the outcome in the assay on HEK293 and in the assay with SH-SY5Y was Active. Besides, the results for the negative logarithm of the Ki (pKi) on Acetylcholinesterase [5] and on Cholinesterase [4] were 7.89 and 7.72, respectively.
In the case of `Fc1cccc(CNCCCCCCCCNc2ccnc3cc(Cl)ccc23)c1`, the negative-log Ki (pKi) at Cholinesterase [1] is 8.08; at Acetylcholinesterase [2] it was 8.49.
With `FC(F)(F)c1ccc2c(NCCCCCCCCNc3cc4ccccc4o3)ccnc2c1`, the negative-log Ki (pKi) was 6.27 at Acetylcholinesterase [8] and 7.31 on Cholinesterase [4].
In the case of `Fc1ccc(NCCCCCCCCNc2ccnc3cc(C(F)(F)F)ccc23)cc1`, the values for the pKi at Acetylcholinesterase [3] and on Cholinesterase [4] were 7.92 and 8.21, respectively.
For the molecule `Fc1cc(C(F)(F)F)ccc1CNCCCCCCCCNc1ccnc2cc(Cl)ccc12`, the outcome in the assay on HEK293 was Active. For the same molecule, the negative logarithm of the Ki (pKi) was 5.96 on Cholinesterase [1] and 6.82 on Acetylcholinesterase [2]. Besides, in the assay on SH-SY5Y, the Activity result is reported as “Active; Increase In Toxicity Compared To Parent Compound 1”.
Turning to `Clc1ccc(CNCCCCCCCCNc2ccnc3cc(Cl)ccc23)c(Cl)c1`, the pKi at Cholinesterase [1] was 6.74; at Acetylcholinesterase [2] it was 7.44. The Activity entry with SH-SY5Y is listed as “Active; Increase In Toxicity Compared To Parent Compound 1”.
The molecule `FC(F)(F)c1ccc2c(NCCCCCCCCNc3ccncc3)ccnc2c1` gave an inhibition in [6] above 5.6%. Moreover, the pKi at Cholinesterase [4] was 5.89.
For the molecule `FC(F)(F)c1ccc2c(NCCCCCCCCNc3cccc(Cl)c3)ccnc2c1`, the result in the assay on HEK293 and in the assay on SH-SY5Y was Active. Also, the pKi on Cholinesterase [7] is 8.23; at Acetylcholinesterase [5], 7.96. This molecule showed an inhibition in assay [6] above 5.6%.
For the molecule `Fc1cccc(NCCCCCCCCNc2ccnc3cc(C(F)(F)F)ccc23)c1`, the outcome with HEK293, with HepG2 and with SH-SY5Y was inactive. Also, the pKi at Cholinesterase [7] was 8.17; at Acetylcholinesterase [5] it was 8.15. For the same molecule, the inhibition in [6] was above 5.6%.
For the molecule `Fc1cc(C(F)(F)F)ccc1CN(CCCCCCCCNc1ccnc2cc(Cl)ccc12)c1ccc(C(F)(F)F)cc1F`, the figures for the negative-log Ki (pKi) on Cholinesterase [1] and at Acetylcholinesterase [2] were 5.82 and 6.15, respectively.
For `FC(F)(F)c1ccc2c(NCCCCCCCCNc3ccc(Cl)cc3)ccnc2c1`, the result in the assay with HEK293 and with SH-SY5Y was Active. In addition, the pKi at Acetylcholinesterase [8] was 7.15; on Cholinesterase [4] it was 7.68.
Regarding `Fc1ccc(F)c(CNCCCCCCCCNc2ccnc3cc(Cl)ccc23)c1`, the negative logarithm of the Ki (pKi) at Cholinesterase [1] is 7.39; on Acetylcholinesterase [2], 8.09. The inhibition in assay [6] was above 5.6%.
`Fc1cc(Br)ccc1CNCCCCCCCCNc1ccnc2cc(Cl)ccc12`: the negative logarithm of the Ki (pKi) at Cholinesterase [1] is 6.64; on Acetylcholinesterase [2] it was 6.96. In addition, the Activity entry in the assay with SH-SY5Y is listed as “Active; Increase In Toxicity Compared To Parent Compound 1”.
Turning to `FC(F)(F)c1ccc2c(NCCCCCCCCNc3ccccc3)ccnc2c1`, the pKi was 7.68 on Cholinesterase [7] and 8.10 at Acetylcholinesterase [3]. The same molecule had an inhibition in assay [6] above 5.6%.
Regarding `FC(F)(F)c1ccc2c(NCCCCCCCCNC3NCCN3)ccnc2c1`, the negative logarithm of the Ki (pKi) is 6.72 on Cholinesterase [7] and 6.70 at Acetylcholinesterase [3].
